What all share (assay type): cell-based
Experiment [1] has as its target T1, CYCLIN K (nuclear staining in CAL-120 cells) (Homo sapiens, UniProt O75909).
T1 construct: endogenous in cells; host or cells: CAL-120 human breast cancer cells (DSMZ ACC 459)
Kind of experiment: CYCLIN K nuclear protein level: immunofluorescence high content analysis (CAL-120). The following applies: 24 h, 50% reduction of nuclear CCNK staining intensity, median, read-out: CYCLIN K degradation IF, DC50-[mol/l] (median). In a few lines:
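CAL-120 breast cancer cells treated in dose-response for 24 h at 37 °C, PFA-fixed and immunostained for cyclin K with Hoechst counterstain. Confocal imaging quantified nuclear intensity; DC50 is the concentration giving 50% reduction of nuclear CCNK staining, normalized to DMSO and control.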

In experiment [2] the target is T2, CDK12 (nuclear staining in CAL-120 cells) (Homo sapiens, UniProt Q9NYV4).
T2 construct: endogenous in cells; host or cells: CAL-120 human breast cancer cells (DSMZ ACC 459)
T2 sequence (Q9NYV4 whole entry): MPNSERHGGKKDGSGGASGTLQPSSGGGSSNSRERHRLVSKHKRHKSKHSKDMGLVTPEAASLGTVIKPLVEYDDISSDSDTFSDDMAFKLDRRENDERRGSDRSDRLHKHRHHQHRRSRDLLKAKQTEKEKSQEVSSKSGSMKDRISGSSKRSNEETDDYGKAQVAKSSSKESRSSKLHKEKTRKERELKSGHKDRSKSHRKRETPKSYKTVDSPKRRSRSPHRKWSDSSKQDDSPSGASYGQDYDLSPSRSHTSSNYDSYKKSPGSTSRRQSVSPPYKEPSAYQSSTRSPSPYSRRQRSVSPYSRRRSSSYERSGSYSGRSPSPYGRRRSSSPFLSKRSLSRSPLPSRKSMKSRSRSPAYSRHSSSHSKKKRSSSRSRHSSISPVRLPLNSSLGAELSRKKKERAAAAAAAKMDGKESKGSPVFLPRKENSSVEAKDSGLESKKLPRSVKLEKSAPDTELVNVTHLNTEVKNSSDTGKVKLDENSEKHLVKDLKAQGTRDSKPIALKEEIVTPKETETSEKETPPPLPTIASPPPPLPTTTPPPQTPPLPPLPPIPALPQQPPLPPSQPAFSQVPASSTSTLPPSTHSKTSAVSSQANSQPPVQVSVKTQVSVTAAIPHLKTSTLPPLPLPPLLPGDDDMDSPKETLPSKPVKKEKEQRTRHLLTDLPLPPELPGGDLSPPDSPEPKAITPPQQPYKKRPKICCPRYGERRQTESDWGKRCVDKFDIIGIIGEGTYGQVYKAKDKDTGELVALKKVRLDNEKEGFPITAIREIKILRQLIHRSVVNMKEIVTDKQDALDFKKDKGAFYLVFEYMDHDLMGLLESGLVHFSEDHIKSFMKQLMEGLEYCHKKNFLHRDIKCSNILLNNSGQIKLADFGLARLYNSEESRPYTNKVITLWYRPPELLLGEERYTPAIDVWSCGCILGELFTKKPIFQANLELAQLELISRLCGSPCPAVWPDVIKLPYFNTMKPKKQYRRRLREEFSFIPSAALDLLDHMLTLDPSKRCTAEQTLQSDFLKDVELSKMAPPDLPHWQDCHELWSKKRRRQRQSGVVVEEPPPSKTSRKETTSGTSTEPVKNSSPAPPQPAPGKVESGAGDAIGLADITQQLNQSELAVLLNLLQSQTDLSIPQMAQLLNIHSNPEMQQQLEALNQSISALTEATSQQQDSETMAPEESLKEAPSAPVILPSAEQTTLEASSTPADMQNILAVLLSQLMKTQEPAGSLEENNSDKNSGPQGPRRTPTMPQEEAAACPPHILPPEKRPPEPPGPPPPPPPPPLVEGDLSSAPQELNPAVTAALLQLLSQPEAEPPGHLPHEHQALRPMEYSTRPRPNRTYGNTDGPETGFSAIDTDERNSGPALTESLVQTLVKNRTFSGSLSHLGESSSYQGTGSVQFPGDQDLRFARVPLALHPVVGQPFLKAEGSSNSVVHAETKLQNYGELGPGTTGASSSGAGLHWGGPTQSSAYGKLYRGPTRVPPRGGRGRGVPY
T2 sequence (O75909 whole entry partner): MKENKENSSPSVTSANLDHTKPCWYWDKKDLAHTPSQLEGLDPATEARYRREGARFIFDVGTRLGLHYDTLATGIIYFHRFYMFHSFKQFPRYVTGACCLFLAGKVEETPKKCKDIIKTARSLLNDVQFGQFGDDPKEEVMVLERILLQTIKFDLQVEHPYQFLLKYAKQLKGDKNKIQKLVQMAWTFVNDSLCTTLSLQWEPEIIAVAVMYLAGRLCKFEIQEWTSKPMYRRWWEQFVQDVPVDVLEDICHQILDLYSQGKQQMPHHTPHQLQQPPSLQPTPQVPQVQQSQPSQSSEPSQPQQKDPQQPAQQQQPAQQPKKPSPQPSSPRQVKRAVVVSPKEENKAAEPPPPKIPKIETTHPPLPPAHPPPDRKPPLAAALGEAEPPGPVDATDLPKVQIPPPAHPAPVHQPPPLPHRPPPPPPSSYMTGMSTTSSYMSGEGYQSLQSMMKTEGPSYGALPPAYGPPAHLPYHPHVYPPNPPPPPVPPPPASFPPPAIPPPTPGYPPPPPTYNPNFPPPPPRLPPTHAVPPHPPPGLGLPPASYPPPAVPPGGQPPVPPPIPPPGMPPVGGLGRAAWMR
Kind of experiment: CDK12 nuclear protein level: immunofluorescence/high content analysis (CAL-120). The following applies: for DC50: CAL-120 cells, 24 h, immunofluorescence, 50% reduction of nuclear CDK12 staining intensity, median, read-out: CDK12 degradation IF, DC50- [mol/l] (median); for (IC50 CDK12 high ATP) to (Degradation DC50 CDK12) ratio: ratio of IC50 CDK12 high ATP kinase assay to DC50 CDK12 degradation (IF, CAL-120). The method, boiled down: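 CAL-120 cells were treated with compound for 24 h at 37 °C, fixed with PFA and immunostained for CDK12. Nuclear CDK12 intensity was quantified by automated image analysis and normalized to DMSO and control. DC50 is the concentration giving 50% reduction of nuclear staining.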

Experiment [3] deals with CAL-120, human breast adenocarcinoma cells. Kind of experiment: Proliferation assay CAL-120 (crystal violet, 4 days). The following applies: Homo sapiens, CAL-120, 96 h, CAL-120 cells, median, read-out: Prolif-CAL-120, IC50-[mol/l] (median). The method, boiled down:
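Following a 24 h attachment in 10% fetal calf serum medium, cells receive test substance over 0.01-10 µmol/L for 4 days. Dye retained by fixed cells is eluted and read at 595 nm; cell number change is referenced to day-0 and untreated wells.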

The record followed here is patent publication US20230117034A1, “PYRAZOLOTRIAZINES” (Bayer Aktiengesellschaft, priority 2019, published 2023).

T1 sequence (O75909 whole entry): as the sequence (O75909 whole entry partner) above
T1 sequence (Q9NYV4 whole entry partner): as the sequence (Q9NYV4 whole entry) above

Take `C[C@@H]1CN(c2nc(NCc3nnc(-c4ccccc4)[nH]3)n3ncc(Br)c3n2)C[C@H](C)O1` [Example 78, 8-bromo-2-[(2R,6S)-2,6-dimethylmorpholin-4-yl]-N-[(5-phenyl-4H-1,2,4-triazol-3-yl)methyl]pyrazolo[1,5-a][1,3,5]triazin-4-amine]: the DC50 in experiment [1] was 1.61 nM. Also, in experiment [2], the DC50 was 5.15 nM and the “(IC50 CDK12 high ATP) to (Degradation DC50 CDK12) ratio” value is recorded as 141. In experiment [3], the IC50 was determined as 25.7 nM.

For the compound `Brc1cnn2c(NCc3ncc(-c4ccccn4)[nH]3)nc(N3CCOCC3)nc12` [Example 90, 8-bromo-2-(morpholin-4-yl)-N-{[5-(pyridin-2-yl)-1H-imidazol-2-yl]methyl}pyrazolo[1,5-a][1,3,5]triazin-4-amine], the DC50 in experiment [1] turned out to be 0.357 nM. Besides, in experiment [2], the DC50 came out at 4.05 nM and the “(IC50 CDK12 high ATP) to (Degradation DC50 CDK12) ratio” value is given as 1092. Also, the IC50 in experiment [3] came to 17.4 nM.
